In brackets after ≈: the same amount, converted by molar mass. Where a SMILES comes first, the peptide text is derived from it. Bridges are numbered along the chain shown (N, C = ends). [ ]: non-standard residue; d: D form. S5 = C=CCCC[C@](C)(N)C(=O)O Where only a bound is given, the exact number is not on record here.

One series relates to C. albicans 901. Briefly: microbe, parasite or virus in culture. The protocol:
(§1) The in vitro antifungal activities of the target peptides were evaluated according to protocols from the CLSI. The broth microdilution method was used to determine the minimum inhibitory concentration (MIC) of the target peptides in 96-well plates. Fluconazole was used as a reference drug.
(§2) Clinical isolates of C. albicans SC5314, 901, 904, C. tropicalis ATCC20026 and clinical isolate 895, C. glabrata ATCC1182 and clinical isolate 896, C. krusei ATCC2340, and C. parapsilosis ATCC22010 are from the collection library in the Drug Discovery and Development Center, Naval Medical University, Shanghai, China. C. auris clinical isolates are provided by Linqi Wang (Institute of Microbiology, Chinese Academy of Sciences) and Changbin Chen (Institut Pasteur of Shanghai, Chinese Academy of Sciences). All strains were cultured in YPD (1% yeast extract, 2% peptone, and 2% glucose) liquid medium overnight at 30 °C with shaking at 220 rpm.
(§3) The MICs of chemicals against all strains were determined by the micro broth dilution method according to the Clinical and Laboratory Standards Institute (Wayne PA, Reference Method for Broth Dilution Antifungal Susceptibility Testing of yeasts, approved Standard M27-A3, 3 rd ed; Clinical and Laboratory Standards Institute (CLSI): USA, 2008). The initial concentration of fungal suspension in RPMI 1640 medium was 3–5 × 10^3 colonies forming unit (CFU)/mL, which was added to 96-well plates. Peptides were prepared in dimethyl sulfoxide (DMSO) with an initial stored concentration of 6.4 mg/mL. Serial dilutions were made based on the CLSI M27 guide to obtaining the final concentrations ranging from 0.125 to 64 μg/mL for fluconazole and 0.25 to 128 μg/mL for peptides […]. The plates were incubated at 30 °C for 48 h. Optical density was measured at 630 nm, and background optical densities were subtracted from that of each well. The definition of MIC is the lowest concentration at which 80% of tested strains cannot grow.

The test system of a further series is C. albicans 904. Briefly: microbe, parasite or virus in culture. As for the experimental part:
as §1, §2, §3

The test system of a further series is C. albicans SC5314. In words: microbe, parasite or virus in culture. The protocol:
as §1, §2, §3

The subject of the next series is C. auris 918. Briefly: microbe, parasite or virus in culture. The protocol:
as §1, §2, §3

For the next series, the system named is C. auris 919. Briefly: microbe, parasite or virus in culture. The protocol:
as §1, §2, §3

A further series concerns C. glabrata 896. In words: microbe, parasite or virus in culture. The protocol: as §1, §2, §3
The next series concerns C. glabrata ATCC 1182. In words: microbe, parasite or virus in culture. The protocol:
as §1, §2, §3

The subject of the next series is C. krusei ATCC 2340. Briefly: microbe, parasite or virus in culture. As for the experimental part: as §1, §2, §3
Series [1] has as its system C. parapsilosis ATCC 22010. Briefly: microbe, parasite or virus in culture. The protocol: as §1, §2, §3
A further series concerns C. tropicalis 895. Briefly: microbe, parasite or virus in culture. As for the experimental part:
as §1, §2, §3

A further series concerns C. tropicalis ATCC 20026. Briefly: microbe, parasite or virus in culture. The protocol: as §1, §2, §3
A further series relates to chymotrypsin. Briefly: Chymotrypsin digestion assay (proteolytic stability). The note with it: chymotrypsin 10 ng/µL in PBS 50 mM, 2 mM CaCl2, pH 7.4, room temperature; 130 µL of 1 mM DMSO peptide stock + 910 µL enzyme; sampled 0, 0.5, 1.5, 2, 4.5 h; HPLC at 214 nm. The protocol: Their susceptibility toward chymotrypsin degradation was tested in pH 7.4 PBS buffer at room temperature, containing 2 mM of CaCl2, and the percentages of remaining peptides were determined by HPLC. […] The corresponding HPLC charts for the determination of peptide residues are in the Supplementary Material.
Figure 4 Proteolytic stability of Aurein1.2, Sau-1, Sau-2, Sau-5, and Sau-9. They were dissolved in chymotrypsin solution (10 ng/μL, 50 mM, containing 2 mM of CaCl2, pH = 7.4). The percentages of the remaining peptides were monitored by HPLC.
Aurein1.2, Sau-1, Sau-2, Sau-5, and Sau-9, were dissolved in dimethyl sulfoxide to prepare a reserve solution with a concentration of 1 mM. Chymotrypsin was dissolved in PBS buffer (50 mM, containing 2 mM of CaCl2, pH = 7.4) to obtain a final concentration of 10 ng/µL. Then the 130 µL peptide solutions were incubated with 910 µL of chymotrypsin solution at room temperature. Then 130 µL of digestion mixture was taken at 0, 0.5, 1.5, 2 or 4.5 h, and then quenched with 50 µL of hydrochloric acid (1 mM). High-performance liquid chromatography (HPLC) was used to detect the residues of linear peptides and stapled Aurein1.2 peptides at 214 nm at a different time.

The nature of series [2]: Helicity by circular dichroism. The class given is physicochemical. The settings on record: CD, 50 μM peptide in phosphate buffer/trifluoroethanol (7:3), 20 °C, calculated on [θ]222. The protocol:
We use circular dichroism (CD) spectroscopy to probe the structural changes of Aurein1.2. According to the formula for calculating the helix reported in the previous relevant literature, we calculated the helicities of Aurein1.2 and the stapled peptides.
Figure 3 CD spectra of Aurein1.2 and its analogues. The peptides were dissolved in a solution of phosphate buffer and trifluoroethanol (7:3) and reached a concentration of 50 μM. The helicities of these peptides were calculated on the [θ]222. TEXT PRINTED IN THE PICTURE: Aurein1.2: helicity: 56.6% | Sau-1: helicity: 60.2% | Sau-2: helicity: 52.5% | Sau-3: helicity: 72.3% | Sau-4: helicity: 73.5% | Sau-5: helicity: 61.0% | Sau-6: helicity: 49.9% | Sau-7: helicity: 65.0% | Sau-8: helicity: 83.1% | Sau-9: helicity: 67.8%
The linear peptide and the stapled Aurein1.2 peptides were dissolved to form a sample with a concentration of 50 μM. The solvent consists of phosphate-buffered solution and trifluoroethanol (7:3). We used a […] quartz tube to obtain CD spectra on a Jasco-715 spectrophotometer at 20 °C. The measurement parameters were set up as follows: wavelength, 190–255 nm; speed, 20 nm min^−1; step resolution, 1.0 nm. And we accumulated the data twice. All spectral data were subtracted from the background. […] The helicity of each peptide was calculated according to the equation in the literature.

In the case of `CC[C@H](C)[C@@H]1NC(=O)[C@@](C)(NC(=O)[C@H](CC(=O)O)NC(=O)[C@H](Cc2ccccc2)NC(=O)[C@H](CC(C)C)NC(=O)CNC(C)=O)CCCC=CCCC[C@@](C)(C(=O)N[C@@H](C)C(=O)N[C@@H](CCC(=O)O)C(=O)N[C@@H](CO)C(=O)N[C@@H](Cc2ccccc2)C(N)=O)NC(=O)[C@H](CCCCN)NC(=O)[C@H](CCCCN)NC1=O` [Sau-5] (Ac-GLFD[S5]IKK[S5]AESF-NH2; staple 5-9), the “Minimum inhibitory concentration (MIC)” value with C. albicans 901 (901, 48 h) is above 128 µg/mL; in the series with C. albicans 904 (904, 48 h), above 128 µg/mL; in the series with C. albicans SC5314 (SC5314, 48 h) it was 16 µg/mL (≈ 10.4 µM); with C. auris 918 (918, 48 h), above 128 µg/mL; with C. auris 919 (919, 48 h) it was above 128 µg/mL; with C. glabrata 896 (896, 48 h), above 128 µg/mL. Also, the “Minimum inhibitory concentration (MIC)” value in the series with C. glabrata ATCC 1182 (ATCC 1182, 48 h) is above 128 µg/mL; in the series on C. krusei ATCC 2340 (ATCC 2340, 48 h), above 128 µg/mL; in series [1] (ATCC 22010, 48 h), above 128 µg/mL; with C. tropicalis 895 (895, 48 h) it was 16 µg/mL (≈ 10.4 µM); in the series with C. tropicalis ATCC 20026 (ATCC 20026, 48 h) it was above 128 µg/mL. For the same molecule, in the series on chymotrypsin, the “proteolytic stability, remaining peptide” value was “remain relatively stable over time”.
With `CC[C@H](C)[C@H](NC(=O)[C@H](CC(=O)O)NC(=O)[C@H](Cc1ccccc1)NC(=O)[C@H](CC(C)C)NC(=O)CNC(C)=O)C(=O)N[C@H](C(=O)N[C@@H](CCCCN)C(=O)N[C@@]1(C)CCCC=CCCC[C@@](C)(C(=O)N[C@@H](Cc2ccccc2)C(N)=O)NC(=O)[C@H](CCC(=O)O)NC(=O)[C@H](C)NC(=O)[C@H]([C@@H](C)CC)NC1=O)[C@@H](C)CC` [Sau-8] (Ac-GLFDIIK[S5]IAE[S5]F-NH2; staple 8-12), the “Minimum inhibitory concentration (MIC)” value with C. albicans 901 (901, 48 h) is above 128 µg/mL; in the series on C. albicans 904 (904, 48 h), above 128 µg/mL; in the series with C. albicans SC5314 (SC5314, 48 h), above 64 µg/mL; in the series with C. auris 918 (918, 48 h), above 128 µg/mL; with C. auris 919 (919, 48 h), above 128 µg/mL; with C. glabrata 896 (896, 48 h), above 128 µg/mL. Further, the “Minimum inhibitory concentration (MIC)” value in the series with C. glabrata ATCC 1182 (ATCC 1182, 48 h) was above 128 µg/mL; with C. krusei ATCC 2340 (ATCC 2340, 48 h), above 128 µg/mL; in [1] (ATCC 22010, 48 h) it was above 128 µg/mL; with C. tropicalis 895 (895, 48 h), above 128 µg/mL; in the series on C. tropicalis ATCC 20026 (ATCC 20026, 48 h) it was above 128 µg/mL.
On to `CC[C@H](C)[C@H](NC(=O)[C@H](CC(=O)O)NC(=O)[C@H](Cc1ccccc1)NC(=O)[C@H](CC(C)C)NC(=O)CNC(C)=O)C(=O)N[C@H](C(=O)N[C@@H](CCCCN)C(=O)N[C@@H](CCCCN)C(=O)N[C@@]1(C)CCCC=CCCC[C@@](C)(C(N)=O)NC(=O)[C@H](CO)NC(=O)[C@H](CCC(=O)O)NC(=O)[C@H](C)NC1=O)[C@@H](C)CC` [Sau-9] (Ac-GLFDIIKK[S5]AES[S5]-NH2; staple 9-13), for which the “Minimum inhibitory concentration (MIC)” value in the series with C. albicans 901 (901, 48 h) was above 128 µg/mL; in the series with C. albicans 904 (904, 48 h), above 128 µg/mL; in the series with C. albicans SC5314 (SC5314, 48 h) it was above 64 µg/mL; in the series with C. auris 918 (918, 48 h), above 128 µg/mL; with C. auris 919 (919, 48 h), above 128 µg/mL; with C. glabrata 896 (896, 48 h), above 128 µg/mL. Moreover, the “Minimum inhibitory concentration (MIC)” value was above 128 µg/mL with C. glabrata ATCC 1182 (ATCC 1182, 48 h); above 128 µg/mL in the series on C. krusei ATCC 2340 (ATCC 2340, 48 h); above 128 µg/mL in [1] (ATCC 22010, 48 h); 32 µg/mL (≈ 21.2 µM) in the series on C. tropicalis 895 (895, 48 h); above 128 µg/mL with C. tropicalis ATCC 20026 (ATCC 20026, 48 h).
For “Ac-GLFDIIKKIAESF-NH2 [reference compound]”, the “Minimum inhibitory concentration (MIC)” value in the series on C. albicans 901 (C. albicans 901, fluconazole-resistant clinical isolate, RPMI 1640, 30 °C, 48 h, OD 630 nm, 80% inhibition) was above 128 µg/mL; in the series on C. albicans 904 (C. albicans 904, RPMI 1640, 30 °C, 48 h, OD 630 nm, 80% inhibition), above 128 µg/mL; in the series with C. albicans SC5314 (C. albicans SC5314, RPMI 1640, 3–5 × 10^3 CFU/mL, 30 °C, 48 h, OD 630 nm, 80% inhibition), above 64 µg/mL; in the series on C. auris 918 (C. auris clinical isolate 918, RPMI 1640, 30 °C, 48 h, OD 630 nm, 80% inhibition), above 128 µg/mL; in the series with C. auris 919 (C. auris clinical isolate 919, RPMI 1640, 30 °C, 48 h, OD 630 nm, 80% inhibition) it was above 128 µg/mL; in the series on C. glabrata 896 (C. glabrata clinical isolate 896, RPMI 1640, 30 °C, 48 h, OD 630 nm, 80% inhibition) it was above 128 µg/mL. Further, the “Minimum inhibitory concentration (MIC)” value in the series on C. glabrata ATCC 1182 (C. glabrata ATCC 1182, RPMI 1640, 30 °C, 48 h, OD 630 nm, 80% inhibition) was above 128 µg/mL; in the series with C. krusei ATCC 2340 (C. krusei ATCC 2340, RPMI 1640, 30 °C, 48 h, OD 630 nm, 80% inhibition) it was above 128 µg/mL; in [1] (C. parapsilosis ATCC 22010, RPMI 1640, 30 °C, 48 h, OD 630 nm, 80% inhibition) it was above 128 µg/mL; in the series on C. tropicalis 895 (C. tropicalis 895, fluconazole-resistant clinical isolate, RPMI 1640, 30 °C, 48 h, OD 630 nm, 80% inhibition), above 128 µg/mL; in the series with C. tropicalis ATCC 20026 (C. tropicalis ATCC 20026, RPMI 1640, 30 °C, 48 h, OD 630 nm, 80% inhibition) it was above 128 µg/mL. For the same molecule, the helicity in series [2] is 56.6%. Further, the “proteolytic stability, remaining peptide” value in the series on chymotrypsin was “disintegrated almost completely by 4.5 h”.

The record behind these values is publication PMC8389037, “Design, Synthesis and Antifungal Activity of Stapled Aurein1.2 Peptides” (Antibiotics, 2021).
